The record followed here is ChEMBL document CHEMBL5620381, “Design, synthesis and antitubercular activity of novel N-(amino)piperazinyl benzothiazinones with improved safety” (Eur J Med Chem, 2023).

≈ marks a conversion by molar mass, not a printed value.

For assay [1], the system named is Mycobacterium tuberculosis. The assay is described as follows: Antitubercular activity against multidrug resistant Mycobacterium tuberculosis 16995 incubated for 8 days by MABA. It is filed as functional. The conditions noted are these: Mycobacterium tuberculosis, 16995, 192 h; time 8 day.
The test system of assay [2] is Mycobacterium tuberculosis. The assay is described as follows: Antitubercular activity against multidrug resistant Mycobacterium tuberculosis 16883 incubated for 8 days by MABA. It is filed as functional. The conditions noted are these: Mycobacterium tuberculosis, 16883, 192 h; time 8 day. (In general: Alamar Blue is a resazurin reagent that responds to reducing activity.)

`CN(C1CCC(=NOC(C)(C)C)CC1)N1CCN(c2nc(=O)c3cc(C(F)(F)F)cc([N+](=O)[O-])c3s2)CC1` (stereo not drawn): the values for the MIC in assay [1] and in assay [2] were 12.8 ng/mL (≈ 23 nM) and 5.25 ng/mL (≈ 9.43 nM), respectively.

For the compound `NNC(=O)c1ccncc1` [ISONIAZID], the MIC in assay [1] and in assay [2] was above 20000 ng/mL throughout.

For the compound `CN(C1CCC(C)(C)CC1)N1CCN(c2nc(=O)c3cc(C(F)(F)F)cc([N+](=O)[O-])c3s2)CC1(C)C`, the MIC in assay [1] and in assay [2] was below 1 ng/mL throughout.

In the case of `CN(C1CCCCC1)N1CCN(c2nc(=O)c3cc(C(F)(F)F)cc([N+](=O)[O-])c3s2)CC1`, the MIC in assay [1] and in assay [2] was below 1 ng/mL in each case.

In the case of `CC1CCCCC1N(C)N1CCN(c2nc(=O)c3cc(C(F)(F)F)cc([N+](=O)[O-])c3s2)CC1` (stereo not drawn), the MIC in assay [1] and in assay [2] was below 1 ng/mL throughout.

As for `CN(C1CCCCCCC1)N1CCN(c2nc(=O)c3cc(C(F)(F)F)cc([N+](=O)[O-])c3s2)CC1`, the MIC in assay [1] and in assay [2] was below 1 ng/mL each time.

With `CON=C1CCC(N(C)N2CCN(c3nc(=O)c4cc(C(F)(F)F)cc([N+](=O)[O-])c4s3)CC2C)CC1` (stereo not drawn), the MIC (in general, the lowest concentration that inhibits growth of the organism) came to 14.9 ng/mL (≈ 28.2 nM) in assay [1] and 6.65 ng/mL (≈ 12.6 nM) in assay [2].

Consider `CC1CC(N(C)N2CCN(c3nc(=O)c4cc(C(F)(F)F)cc([N+](=O)[O-])c4s3)CC2)CC(C)(C)C1` (stereo not drawn), for which the minimum inhibitory concentration (MIC) in assay [1] and in assay [2] was below 1 ng/mL in each case.

With `CN(C1CCCCC1)N1CCN(c2nc(=O)c3cc(C(F)(F)F)cc([N+](=O)[O-])c3s2)CC1(C)C`, the MIC in assay [1] and in assay [2] was below 1 ng/mL in each case.

As for `CC1CCCCC1NN1CCN(c2nc(=O)c3cc(C(F)(F)F)cc([N+](=O)[O-])c3s2)CC1` (stereo not drawn), the MIC in assay [1] and in assay [2] was below 1 ng/mL throughout.

With `CON=C1CCC(N(C)N2CCN(c3nc(=O)c4cc(C(F)(F)F)cc([N+](=O)[O-])c4s3)CC2)CC1` (stereo not drawn), the minimum inhibitory concentration (MIC) in assay [1] and in assay [2] was below 1 ng/mL in each case.

Regarding `CC1CN(c2nc(=O)c3cc(C(F)(F)F)cc([N+](=O)[O-])c3s2)CCN1N(C)C1CCCCC1` (stereo not drawn), the MIC in assay [1] and in assay [2] was below 1 ng/mL in each case.

`CC1(C)CCC(NN2CCN(c3nc(=O)c4cc(C(F)(F)F)cc([N+](=O)[O-])c4s3)CC2)CC1`: the minimal inhibitory concentration (MIC) in assay [1] and in assay [2] was below 1 ng/mL throughout.

On to `CN(C1C2CC3CC(C2)CC1C3)N1CCN(c2nc(=O)c3cc(C(F)(F)F)cc([N+](=O)[O-])c3s2)CC1` (stereo not drawn), for which the values for the MIC in assay [1] and in assay [2] were 1.5 ng/mL (≈ 2.86 nM) and below 1 ng/mL, respectively.

Take `CN(CC1CCC(F)(F)CC1)N1CCN(c2nc(=O)c3cc(C(F)(F)F)cc([N+](=O)[O-])c3s2)CC1`: the MIC in assay [1] and in assay [2] was below 1 ng/mL each time.

`CC1CCC(N(C)N2CCN(c3nc(=O)c4cc(C(F)(F)F)cc([N+](=O)[O-])c4s3)CC2)CC1` (stereo not drawn): the MIC in assay [1] and in assay [2] was below 1 ng/mL each time.

With `CN(C1CCC2(CCCCC2)CC1)N1CCN(c2nc(=O)c3cc(C(F)(F)F)cc([N+](=O)[O-])c3s2)CC1`, the minimal inhibitory concentration (MIC) in assay [1] and in assay [2] was below 1 ng/mL in each case.

For the compound `O=c1nc(N2CCN(NC3CCCCCCC3)CC2)sc2c([N+](=O)[O-])cc(C(F)(F)F)cc12`, the MIC in assay [1] and in assay [2] was below 1 ng/mL throughout.

Regarding `CC1CCC(NN2CCN(c3nc(=O)c4cc(C(F)(F)F)cc([N+](=O)[O-])c4s3)CC2)CC1` (stereo not drawn), the MIC in assay [1] and in assay [2] was below 1 ng/mL in each case.

`CON=C1CCC(N(C)N2CCN(c3nc(=O)c4cc(C(F)(F)F)cc([N+](=O)[O-])c4s3)CC2(C)C)CC1` (stereo not drawn): the MIC in assay [1] is 15.7 ng/mL (≈ 28.9 nM); in assay [2], 125 ng/mL (≈ 231 nM).

In the case of `CC1CN(c2nc(=O)c3cc(C(F)(F)F)cc([N+](=O)[O-])c3s2)CCN1N(C)C1CCC(C)(C)CC1` (stereo not drawn), the MIC in assay [1] and in assay [2] was below 1 ng/mL in each case.

As for `CO[C@H]1/C=C/O[C@@]2(C)Oc3c(C)c(O)c4c(O)c(c(/C=N/N5CCN(C)CC5)c(O)c4c3C2=O)NC(=O)/C(C)=C\C=C\[C@H](C)[C@H](O)[C@@H](C)[C@@H](O)[C@@H](C)[C@H](OC(C)=O)[C@@H]1C` [RIFAMPIN], the MIC in assay [1] and in assay [2] was above 20000 ng/mL in each case.

With `CCON=C1CCC(N(C)N2CCN(c3nc(=O)c4cc(C(F)(F)F)cc([N+](=O)[O-])c4s3)CC2)CC1` (stereo not drawn), the MIC turned out to be 11.2 ng/mL (≈ 21.2 nM) in assay [1] and 11.4 ng/mL (≈ 21.7 nM) in assay [2].

`CN(C1CCC(F)(F)CC1)N1CCN(c2nc(=O)c3cc(C(F)(F)F)cc([N+](=O)[O-])c3s2)CC1`: the MIC in assay [1] and in assay [2] was below 1 ng/mL throughout.

Take `CN(C1CCC(C)(C)CC1)N1CCN(c2nc(=O)c3cc(C(F)(F)F)cc([N+](=O)[O-])c3s2)CC1`: the MIC in assay [1] and in assay [2] was below 1 ng/mL in each case.

Consider `O=c1nc(N2CCN(CC3CCCCC3)CC2)sc2c([N+](=O)[O-])cc(C(F)(F)F)cc12` [MACOZINONE], for which the MIC in assay [1] and in assay [2] was below 1 ng/mL throughout.

Take `CC1CCC(C)C(N(C)N2CCN(c3nc(=O)c4cc(C(F)(F)F)cc([N+](=O)[O-])c4s3)CC2)C1` (stereo not drawn): the MIC in assay [1] and in assay [2] was below 1 ng/mL in each case.

As to `O=c1nc(N2CCN(NC3CCCCC3)CC2)sc2c([N+](=O)[O-])cc(C(F)(F)F)cc12`, the MIC in assay [1] and in assay [2] was below 1 ng/mL throughout.

As for `O=c1nc(N2CCN(NC3CCC(F)(F)CC3)CC2)sc2c([N+](=O)[O-])cc(C(F)(F)F)cc12`, the minimum inhibitory concentration (MIC) in assay [1] was 4 ng/mL (≈ 8.11 nM); in assay [2], 3.15 ng/mL (≈ 6.38 nM).
